Patent publication US8383139B2 (Bayer CropScience AG, priority 2008, dated 2013)

How the values were obtained:
Uromyces appendiculatus = assay: Uromyces test (beans)/protective; assay type: in vivo; conditions: 240 h, 100 ppm active substance, protective, evaluation 10 days after inoculation, read-out: degree of effectiveness
Description: (§1) • Solvents: 24.5 parts by weight of acetone • 24.5 parts by weight of dimethylacetamide • Emulsifier: 1 part by weight of alkylaryl polyglycol ether (polyoxyethylene (16) tristearylphenyl ether)
(§2) To prepare a suitable active substance composition, 1 part by weight of active substance is mixed with the given amounts of solvents and emulsifier and the concentrate is diluted to the desired concentration using water.
For the testing of protective effectiveness, young plants are sprayed with the active substance composition in the application rate given. After the spray coating has been dried on, the plants are inoculated with an aqueous suspension of the spores of the bean rust pathogen Uromyces appendiculatus and then remain in an incubation chamber at approximately 20° C. and 100% relative humidity for 1 day.
The plants are then placed in a greenhouse at approximately 21° C. and a relative humidity of approximately 90%.
Evaluation is carried out 10 days after the inoculation. In this connection, 0% means a degree of effectiveness corresponding to that of the control, while a degree of effectiveness of 100% means that no infestation is observed.

[1] = log P by HPLC on reversed-phase columns (C 18), EEC Directive 79/831 Annex V.A8; assay type: physicochemical; conditions: for chromatographic logP: reversed-phase C18 HPLC column, pH 2.3, [a] HPLC, read-out: log p
Puccinia triticina = Puccinia triticina test (wheat)/protective; assay type: in vivo; conditions: 192 h, 500 ppm active substance, protective, evaluation 8 days after inoculation, read-out: degree of effectiveness
Description: • Solvent: 50 parts by weight of N,N-dimethylacetamide • Emulsifier: 1 part by weight of alkylaryl polyglycol ether (polyoxyethylene (16) tristearylphenyl ether) To prepare a suitable active substance composition, 1 part by weight of active substance is mixed with the given amounts of solvent and emulsifier and the concentrate is diluted to the desired concentration using water. For the testing of protective effectiveness, young plants are sprayed with the active substance composition in the application rate given. After the spray coating has been dried on, the plants are sprayed with spores with a suspension of spores of Puccinia triticina. The plants remain in an incubation chamber at 20° C. and 100% relative humidity for 48 hours. The plants are placed in a greenhouse at a temperature of approximately 20° C. and a relative humidity of approximately 80%. Evaluation is carried out 8 days after the inoculation. In this connection, 0% means a degree of effectiveness corresponding to that of the control, while a degree of effectiveness of 100% means that no infestation is observed.

Sphaerotheca fuliginea = assay: Sphaerotheca test (cucumber)/protective; assay type: in vivo; conditions: Podosphaera fuliginea, 168 h, 500 ppm active substance, protective, evaluation 7 days after inoculation, read-out: degree of effectiveness
Description: • Solvents: 49 parts by weight of N,N-dimethylformamide • Emulsifier: 1 part by weight of alkylaryl polyglycol ether (polyoxyethylene (16) tristearylphenyl ether) To prepare a suitable active substance composition, 1 part by weight of active substance is mixed with the given amounts of solvents and emulsifier and the concentrate is diluted to the desired concentration using water. For the testing of protective effectiveness, young cucumber plants are sprayed with the active substance composition in the application rate given. One day after the treatment, the plants are inoculated with a suspension of spores of Sphaerotheca fuliginea. Subsequently, the plants are placed in a greenhouse at 70% relative humidity and at a temperature of 23° C. Evaluation is carried out 7 days after the inoculation. In this connection, 0% means a degree of effectiveness corresponding to that of the control, while a degree of effectiveness of 100% means that no infestation is observed.

Septoria tritici = Septoria tritici test (wheat)/protective; assay type: in vivo; conditions: Zymoseptoria tritici, 504 h, 500 ppm active substance, protective, evaluation 21 days after inoculation, read-out: degree of effectiveness
Description: • Solvent: 50 parts by weight of N,N-dimethylacetamide • Emulsifier: 1 part by weight of alkylaryl polyglycol ether (polyoxyethylene (16) tristearylphenyl ether) To prepare a suitable active substance composition, 1 part by weight of active substance is mixed with the given amounts of solvent and emulsifier and the concentrate is diluted to the desired concentration using water. For the testing of protective effectiveness, young plants are sprayed with the active substance composition at the application rate given. After the spray coating has dried on, the plants are sprayed with a suspension of spores of Septoria tritici. The plants remain in an incubation chamber at 20° C. and 100% relative humidity for 48 hours. The plants are afterwards placed under a transparent hood at 15° C. and 100% relative humidity for a further 60 hours. The plants are placed in a greenhouse at a temperature of approximately 15° C. and a relative humidity of 80%. Evaluation is carried out 21 days after the inoculation. In this connection, 0% means a degree of effectiveness corresponding to that of the control, while a degree of effectiveness of 100% means that no infestation is observed.

Alternaria solani = assay: Alternaria test (tomato)/protective; assay type: in vivo; conditions: 72 h, 100 ppm active substance, protective, evaluation 3 days after inoculation, read-out: degree of effectiveness
Description: as §1, §2
For the testing of protective effectiveness, young plants are sprayed with the active substance composition in the application rate given. After the spray coating has been dried on, the plants are inoculated with an aqueous suspension of spores of Alternaria solani. The plants are then placed in an incubation chamber at approximately 20° C. and 100% relative humidity.
Evaluation is carried out 3 days after the inoculation. In this connection, 0% means a degree of effectiveness corresponding to that of the control, while a degree of effectiveness of 100% means that no infestation is observed.

[2] = acid region pH 2.3, 0.1% aqueous phosphoric acid and acetonitrile
[3] = [b] LC-MS, acid region pH 2.7, 0.1% aqueous formic acid and acetonitrile

Row | Structure (SMILES) | pest or weed control at 100 ppm (Uromyces appendiculatus) [%] | chromatographic logP [1, 2] | pest or weed control at 500 ppm (Puccinia triticina) [%] | pest or weed control at 500 ppm (Sphaerotheca fuliginea) [%] | pest or weed control at 500 ppm (Septoria tritici) [%] | pest or weed control at 100 ppm (Alternaria solani) [%] | log p [1, 3] | log p ([1]; [a] HPLC, acid region pH 2.3, 0.1% aqueous phosphoric acid and acetonitrile)
1 | Cc1cc(Oc2nc(Cc3ccc(Cl)cc3)ns2)c(Cl)cc1N=CN1CCCCC1 [Example 4, 5-chloro-4-{[3-(4-chlorobenzyl)-1,2,4-thiadiazol-5-yl]oxy}-2-methyl-N-(piperidin-1-ylmethylidene)aniline] | ≥ 70 | 2.53 | ≥ 70 | ≥ 70 | ≥ 70 | – | – | –
2 | Cc1cc(Oc2nc(Cc3ccc(Cl)cc3Cl)ns2)c(C)cc1N=CN(C)C(C)C [Example 12, N′-(4-{[3-(2,4-dichlorobenzyl)-1,2,4-thiadiazol-5-yl]oxy}-2,5-dimethylphenyl)-N-methyl-N-(propan-2-yl)imidoformamide] | ≥ 70 | 2.24 | ≥ 70 | ≥ 70 | ≥ 70 | – | – | –
3 | CCN(C)C=Nc1cc(C)c(Oc2nc(Cc3cc(Br)ccc3C)ns2)cc1C [Example 14, N′-(4-{[3-(5-bromo-2-methylbenzyl)-1,2,4-thiadiazol-5-yl]oxy}-2,5-dimethylphenyl)-N-ethyl-N-methylimidoformamide] | ≥ 70 | 2.28 | ≥ 70 | ≥ 70 | ≥ 70 | – | – | –
4 | CCN(C)C=Nc1cc(C)c(Oc2nc(Cc3cccc(OC)c3)ns2)cc1C [Example 16, N-ethyl-N′-(4-{[3-(3-methoxybenzyl)-1,2,4-thiadiazol-5-yl]oxy}-2,5-dimethylphenyl)-N-methylimidoformamide] | – | 1.7 | ≥ 70 | ≥ 70 | ≥ 70 | – | – | –
5 | Cc1cc(Oc2nc(C(C)c3ccc(Cl)cc3)ns2)c(C)cc1N=CN1CCCCC1 (stereo not shown) [Example 18, 4-({3-[1-(4-chlorophenyl)ethyl]-1,2,4-thiadiazol-5-yl}oxy)-2,5-dimethyl-N-(piperidin-1-ylmethylidene)aniline] | ≥ 70 | 2.41 | ≥ 70 | ≥ 70 | – | – | – | –
6 | Cc1cc(Oc2nc(C(C)(C)c3ccc(Cl)cc3)ns2)c(Cl)cc1N=CN1CCCCC1 [Example 29, 5-chloro-4-({3-[2-(4-chlorophenyl)propan-2-yl]-1,2,4-thiadiazol-5-yl}oxy)-2-methyl-N-(piperidin-1-ylmethylidene)aniline] | – | 2.96 | ≥ 70 | ≥ 70 | ≥ 70 | ≥ 70 | – | –
7 | Cc1cc(Oc2nc(C(C)(C)c3ccc(Cl)cc3)ns2)c(Cl)cc1N=CN(C)C(C)C [Example 30, N′-[5-chloro-4-({3-[2-(4-chlorophenyl)propan-2-yl]-1,2,4-thiadiazol-5-yl}oxy)-2-methylphenyl]-N-methyl-N-(propan-2-yl)imidoformamide] | – | 2.86 | ≥ 70 | ≥ 70 | – | – | – | –
8 | Cc1cc(Oc2nc(Cc3ccc(Br)cc3)ns2)c(C)cc1N=CN1CCCCC1 [Example 33, 4-{[3-(4-bromobenzyl)-1,2,4-thiadiazol-5-yl]oxy}-2,5-dimethyl-N-(piperidin-1-ylmethylidene)aniline] | – | 2.17 | ≥ 70 | ≥ 70 | ≥ 70 | – | – | –
9 | Cc1cc(Oc2nc(Cc3cccc(Cl)c3)ns2)c(C)cc1N=CN1CCCCC1 [Example 34, 4-{[3-(3-chlorobenzyl)-1,2,4-thiadiazol-5-yl]oxy}-2,5-dimethyl-N-(piperidin-1-ylmethylidene)aniline] | ≥ 70 | 2.13 | ≥ 70 | ≥ 70 | ≥ 70 | – | – | –
10 | Cc1cc(Oc2nc(C3(c4ccc(Cl)cc4)CC3)ns2)c(C)cc1N=CN1CCCCC1 [Example 38, 4-({3-[1-(4-chlorophenyl)cyclopropyl]-1,2,4-thiadiazol-5-yl}oxy)-2,5-dimethyl-N-(piperidin-1-ylmethylidene)aniline] | – | 2.6 | ≥ 70 | ≥ 70 | ≥ 70 | ≥ 70 | – | –
11 | Cc1cc(Oc2nc(C3(c4ccc(Cl)cc4)CC3)ns2)c(Cl)cc1N=CN(C)C(C)C [Example 41, N′-[5-chloro-4-({3-[1-(4-chlorophenyl)cyclopropyl]-1,2,4-thiadiazol-5-yl}oxy)-2-methylphenyl]-N-methyl-N-(propan-2-yl)imidoformamide] | – | 2.71 | ≥ 70 | ≥ 70 | ≥ 70 | – | – | –
12 | Cc1cc(Oc2nc(Cc3ccc(Cl)c(Cl)c3)ns2)c(C)cc1N=CN1CCCCC1 [Example 48, 4-{[3-(3,4-dichlorobenzyl)-1,2,4-thiadiazol-5-yl]oxy}-2,5-dimethyl-N-(piperidin-1-ylmethylidene)aniline] | ≥ 70 | – | – | ≥ 70 | – | – | – | –
13 | COc1ccccc1Cc1nsc(Oc2cc(C)c(N=CN3CCCCC3)cc2C)n1 [Example 50, 4-{[3-(2-methoxybenzyl)-1,2,4-thiadiazol-5-yl]oxy}-2,5-dimethyl-N-(piperidin-1-ylmethylidene)aniline] | ≥ 70 | 2.05 | – | ≥ 70 | ≥ 70 | – | – | –
14 | COc1ccc(Cc2nsc(Oc3cc(C)c(N=CN(C)C4CC4)cc3C)n2)cc1 [Example 135] | – | – | – | – | – | – | 1.92^[b] | –
15 | COc1ccc(Cc2nsc(Oc3cc(C)c(N=CN(C)CC(F)F)cc3C)n2)cc1 [Example 136] | – | – | – | – | – | – | 1.87^[b] | –
16 | Cc1ccc(Cc2nsc(Oc3cc(C)c(N=CN(C)CC(F)F)cc3C)n2)cc1 [Example 137] | – | – | – | – | – | – | 2.25^[b] | –
17 | Cc1ccc(Cc2nsc(Oc3cc(C)c(N=CN(C)C4CC4)cc3C)n2)cc1 [Example 138] | – | – | – | – | – | – | 2.19^[b] | –
18 | CCOCC(NC=Nc1cc(C)c(Oc2nc(Cc3ccc(Cl)cc3)ns2)cc1C)C1CC1 (stereo not shown) [Example 139] | – | – | – | – | – | – | – | 2.7^[a]
19 | CCOCC(C1CC1)N(C)C=Nc1cc(C)c(Oc2nc(Cc3ccc(C)cc3)ns2)cc1C (stereo not shown) [Example 140] | – | – | – | – | – | – | 2.4^[b] | –
20 | Cc1cc(Oc2nc(Cc3ccc(OC(F)(F)F)cc3)ns2)c(C)cc1N=CN(C)C1CC1 [Example 141] | – | – | – | – | – | – | 2.2^[b] | –
21 | Cc1cc(Oc2nc(Cc3ccc(OC(F)(F)F)cc3)ns2)c(C)cc1N=CN(C)CC(F)F [Example 142] | – | – | – | – | – | – | 2.46^[b] | –
22 | CCOCC(C1CC1)N(C)C=Nc1cc(C)c(Oc2nc(Cc3ccc(OC(F)(F)F)cc3)ns2)cc1C (stereo not shown) [Example 143] | – | – | – | – | – | – | 2.75^[b] | –
